Laboratory results reported in ChEMBL document CHEMBL1817626, “The structure-activity relationship of urea derivatives as anti-tuberculosis agents” (Bioorg Med Chem, 2011).
pIC50: −log10 of the molar value. In brackets after ≈: the same amount, converted by molar mass. Activity calls are given as the source filed them. No cut-off for these calls is given here.

Tests used:
[1] = test system: Mycolicibacterium smegmatis; test: microbe, parasite or virus in culture; conditions: str. MC2 155, 168 h
Staphylococcus aureus = test: Antibacterial activity against Staphylococcus aureus; assay type: functional
Escherichia coli [2] = test: Antibacterial activity against Escherichia coli […] TolC; assay type: functional
Escherichia coli [3] = test: Antibacterial activity against Escherichia coli K12; assay type: functional; conditions: K-12
Enterococcus faecalis = test: Antibacterial activity against Enterococcus faecalis; assay type: functional
[4] = biological target: T1, Hydrolase, alpha/beta hydrolase fold family (Mycobacterium tuberculosis, UniProt O69638); test: Inhibition of Mycobacterium tuberculosis recombinant EphE expressed in Escherichia coli BL21 using CMNPC as substrate after 30 mins by fluorescent assay relative to control
T1 sequence (O69638 whole entry): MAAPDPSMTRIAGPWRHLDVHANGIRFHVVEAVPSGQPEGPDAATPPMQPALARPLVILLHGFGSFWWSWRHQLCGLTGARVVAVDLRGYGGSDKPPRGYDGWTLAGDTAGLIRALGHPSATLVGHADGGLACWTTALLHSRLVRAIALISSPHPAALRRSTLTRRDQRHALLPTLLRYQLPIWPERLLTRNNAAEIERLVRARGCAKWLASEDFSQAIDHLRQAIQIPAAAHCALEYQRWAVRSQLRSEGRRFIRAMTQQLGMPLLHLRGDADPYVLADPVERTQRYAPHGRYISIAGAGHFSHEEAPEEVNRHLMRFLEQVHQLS

Pseudomonas aeruginosa = test: Antibacterial activity against Pseudomonas aeruginosa; assay type: functional
Bacillus anthracis = test: microbe, parasite or virus in culture
Klebsiella pneumoniae = test: Antibacterial activity against Klebsiella pneumoniae; assay type: functional
Enterococcus faecium = test: Antibacterial activity against Enterococcus faecium; assay type: functional
[5] = biological target: T2, Epoxide hydrolase B (Mycobacterium tuberculosis) (UniProt P95276); test: Inhibition of Mycobacterium tuberculosis recombinant EphB expressed in Escherichia coli BL21 using CMNPC as substrate at 10 nM after 30 mins by fluorescent assay relative to control
T2 sequence (whole entry): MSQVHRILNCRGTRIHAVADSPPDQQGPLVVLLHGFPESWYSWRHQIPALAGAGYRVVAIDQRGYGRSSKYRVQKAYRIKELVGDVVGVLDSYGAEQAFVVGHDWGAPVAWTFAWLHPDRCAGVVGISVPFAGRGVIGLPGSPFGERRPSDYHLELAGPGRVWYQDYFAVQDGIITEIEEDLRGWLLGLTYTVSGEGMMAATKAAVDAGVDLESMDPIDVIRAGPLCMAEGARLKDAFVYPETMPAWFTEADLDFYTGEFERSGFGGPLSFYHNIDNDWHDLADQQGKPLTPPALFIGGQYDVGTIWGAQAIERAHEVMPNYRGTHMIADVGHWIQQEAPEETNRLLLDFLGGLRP

[6] = test system: Mycobacterium tuberculosis; test: microbe, parasite or virus in culture; conditions: H37Rv, 168 h
Vero = test: Cytotoxicity against african green monkey Vero cells after 72 hrs by MTT assay; assay type: cell-based; conditions: Chlorocebus sabaeus
[7] = biological target: T3, Hydrolase, alpha/beta hydrolase fold family (Mycobacterium tuberculosis) (UniProt O69638); test: Inhibition of Mycobacterium tuberculosis recombinant EphE expressed in Escherichia coli BL21 using CMNPC as substrate at 10 nM after 30 mins by fluorescent assay relative to control
T3 sequence (whole entry): T1 sequence (O69638 whole entry)

[8] = biological target: T4, Bifunctional epoxide hydrolase 2 (Homo sapiens, UniProt P34913); test: Inhibition of human recombinant soluble epoxide hydrolase using CMNPC as substrate after 10 mins by fluorescent assay
T4 sequence (P34913 whole entry): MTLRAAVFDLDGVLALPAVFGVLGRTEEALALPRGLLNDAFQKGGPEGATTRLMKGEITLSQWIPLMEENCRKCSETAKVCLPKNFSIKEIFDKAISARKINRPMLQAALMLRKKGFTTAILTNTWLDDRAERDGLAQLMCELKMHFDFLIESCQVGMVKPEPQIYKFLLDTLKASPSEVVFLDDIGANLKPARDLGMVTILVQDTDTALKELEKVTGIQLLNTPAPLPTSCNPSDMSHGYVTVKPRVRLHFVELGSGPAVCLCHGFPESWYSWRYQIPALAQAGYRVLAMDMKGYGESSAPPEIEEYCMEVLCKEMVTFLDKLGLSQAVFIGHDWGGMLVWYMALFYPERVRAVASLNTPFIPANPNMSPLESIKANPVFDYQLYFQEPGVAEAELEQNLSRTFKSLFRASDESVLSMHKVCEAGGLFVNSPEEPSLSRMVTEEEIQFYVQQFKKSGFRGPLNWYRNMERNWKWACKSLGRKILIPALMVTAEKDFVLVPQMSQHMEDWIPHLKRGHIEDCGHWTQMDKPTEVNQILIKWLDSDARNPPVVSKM

Epoxide hydrolase B = biological target: T5, Epoxide hydrolase B (Mycobacterium tuberculosis, UniProt P95276); test: Inhibition of Mycobacterium tuberculosis recombinant EphB expressed in Escherichia coli BL21 using CMNPC as substrate after 30 mins by fluorescent assay relative to control
T5 sequence (P95276 whole entry): T2 sequence (whole entry)

| Compound | MIC [1] | MIC (Staphylococcus aureus) | MIC (Escherichia coli [2]) | MIC (Escherichia coli [3]) | MIC (Enterococcus faecalis) | pIC50 [4] | MIC (Pseudomonas aeruginosa) | MIC (Bacillus anthracis) | MIC (Klebsiella pneumoniae) | MIC (Enterococcus faecium) | inhibition [5] | MIC [6] | IC50 (Vero) | inhibition [7] | pIC50 [8] | pIC50 (Epoxide hydrolase B) |
| --- | --- | --- | --- | --- | --- | --- | --- | --- | --- | --- | --- | --- | --- | --- | --- | --- |
| CC(C)CCOc1ccc(NC(=S)Nc2ccc(OCCC(C)C)cc2)cc1 [TIOCARLIDE] | > 200 µg/mL | > 200 µg/mL | > 200 µg/mL | > 200 µg/mL | > 200 µg/mL | 7.66 | > 200 µg/mL | > 200 µg/mL | > 200 µg/mL | > 200 µg/mL | inactive | 2.5 µg/mL (≈ 6.24 µM) | – | – | – | – |
| CC1C(NC(=O)Nc2ccc(F)c(F)c2F)CC2CC1C2(C)C (stereo not given) | 0.8 µg/mL (≈ 2.45 µM) | 3.12 µg/mL (≈ 9.56 µM) | 1.6 µg/mL (≈ 4.9 µM) | > 200 µg/mL | > 200 µg/mL | – | > 200 µg/mL | 3.12 µg/mL (≈ 9.56 µM) | > 200 µg/mL | > 200 µg/mL | 76.3% | 0.02 µg/mL (≈ 0.0613 µM) | 16 µg/mL (≈ 49 µM) | 86.1% | 9.40 | – |
| Cc1ccc(NC(=O)NC(C)CCc2ccccc2)cc1Cl (stereo not given) | 25 µg/mL (≈ 78.9 µM) | > 200 µg/mL | > 200 µg/mL | > 200 µg/mL | > 200 µg/mL | – | > 200 µg/mL | > 200 µg/mL | > 200 µg/mL | > 200 µg/mL | 81.9% | 6 µg/mL (≈ 18.9 µM) | > 400 µg/mL | 97.4% | 7.82 | – |
| O=C(NCCc1ccccc1)NC1C2CC3CC(C2)CC1C3 (stereo not given) | 25 µg/mL (≈ 83.8 µM) | > 200 µg/mL | > 200 µg/mL | > 200 µg/mL | > 200 µg/mL | – | > 200 µg/mL | > 200 µg/mL | > 200 µg/mL | > 200 µg/mL | 34.1% | 0.01 µg/mL (≈ 0.0335 µM) | 30.2 µg/mL (≈ 101 µM) | 87.9% | 8.35 | – |
| CC(=O)C1CCC(NC(=O)Nc2ccc(OC(F)(F)F)cc2)CC1 (stereo not given) | – | – | – | – | – | – | – | – | – | – | – | – | – | – | 7.92 | 4.50 |
| COCCCNC(=O)NC12CC3CC(CC(C3)C1)C2 | 200 µg/mL (≈ 751 µM) | > 200 µg/mL | > 200 µg/mL | > 200 µg/mL | > 200 µg/mL | – | > 200 µg/mL | > 200 µg/mL | > 200 µg/mL | > 200 µg/mL | 23.7% | 100 µg/mL (≈ 375 µM) | 20.4 µg/mL (≈ 76.6 µM) | 35.9% | 6.41 | – |
